Measured values as given in patent publication EP0561516A1, “Process for stabilizing chlorinated polyethylene against degradation” (THE DOW CHEMICAL COMPANY, priority 1992, dated 1993).

Columns and labels:
Type in all cases: physicochemical
[1] = Extension at break after roll milling, dry blending versus liquid-liquid addition of antioxidant; conditions: with calcium stearate, epoxidized soja bean oil, titanium dioxide
Protocol: In order to illustrate the advantages of liquid-liquid blending over dry blending, a sample of CPE containing 36% chlorine, having a density of 1.18 g/cm³, a weight average molecular weight of 2x10⁵ and a cristallinity of 0.5% is mixed in a food processor with 1% calcium stearate, 1% epoxidized soja bean oil and 0.5% titanium dioxide, based on the weight of the CPE. The mixture is formed into a sheet of 3 mm thickness on a roll mill at 190 °C, and its tensile properties are measured. The extension at break is a measure of the molecular weight of a polymer. The material breaks at 596% extension.
Another sample of the same material is milled for 15 minutes at 190 °C before a sheet of 3 mm thickness is formed.
The antioxidant IRGANOX 1076 (trademark) is added to the mixture as described above at an amount of 0.25% by the weight of the CPE using the food mixer. The resulting mixture is milled for 15 minutes. The extension at break of a sheet of 3 mm thickness, prepared as indicated above, is 740%, showing that the degree of chain scission is reduced by the addition of the antioxidant. (comparative run, but not State of the Art.)
To an aqueous slurry containing 16 % of the CPE, based on the total weight of the slurry, 0.25% IRGANOX 1076 (trademark), by the weight of CPE is added in the manner described in Example 1. The mixture is dried as described in Example 1. […]

[2] = Total organic carbon (TOC) of the slurry, test of antioxidant deposition on CPE; conditions: 60 minutes after addition of 0.5% antioxidant to the CPE slurry; 11.8 ppm before addition
Protocol: In order to test that the antioxidant has actually deposited on the CPE, rather than on the reactor walls, the total organic carbon (TOC) of the slurry is measured, and a glass slide placed in the reactor during the test is investigated for deposition of antioxidant.

[3] = Thermal degradation (weight loss) by TGA at 180 °C in nitrogen purge; conditions: TGA 180 °C, 60 minutes, 0.3% antioxidant added to CPE slurry heated to 80 °C for 90 minutes
Protocol: The thermal degradation (weight loss) of the following samples is measured by TGA at 180 °C (in a nitrogen purge during 60 minutes).

Structure (SMILES)	extension at break ([1]; 0.25% antioxidant added to aqueous slurry with 16% CPE (method of the invention), 15 minutes milling) [%]	extension at break ([1]; 0.25% antioxidant dry-blended in food mixer (comparative run), milled 15 minutes at 190 °C, sheet of 3 mm) [%]	total organic carbon (TOC) of the slurry [2] [ppm]	thermal degradation (weight loss) [3] [ppm/min.]
CCCCCCCCCCCCCCCCCCOC(=O)CCc1cc(C(C)(C)C)c(O)c(C(C)(C)C)c1 [IRGANOX 1076, Octadecyl 3,5-di-tert-butyl-4-hydroxyhydrocinnamate]	704	740	10.0	–
Cc1cc(CCC(=O)OCCOCCOCCOC(=O)CCc2cc(C)c(O)c(C(C)(C)C)c2)cc(C(C)(C)C)c1O [IRGANOX 245, triethylene glycol bis [3-tert-butyl-4-hydroxy-5-methylphenyl]propionate]	–	–	–	75
